The supplement of paper PMC10307832

What was measured:
Assay in all cases: relative viability (nuclei count vs DMSO), 5 days (fraction); higher = more cells survive
FH535 + Palbociclib = compound: CC1=C(C=CC(=C1)[N+](=O)[O-])NS(=O)(=O)C2=C(C=CC(=C2)Cl)Cl [FH535] + CC(=O)c1c(C)c2cnc(Nc3ccc(N4CCNCC4)cn3)nc2n(C2CCCC2)c1=O [Palbociclib] (partner 0.5 µM)
Procedure, shortened: (§1)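 One day after seeding in 1536-well plates, lung cancer cell lines were dosed by pin tool. Dosing was either single-drug or a fixed anchor-drug dose plus five library-drug doses (not always all listed) in √10 steps. After 5 days, nuclei were stained in one fix-and-stain step and counted on 4× images, and relative viability is the nuclei count of treated wells over that of vehicle wells, given as the median of duplicate plates.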

FH535 + Bortezomib = compound: CC1=C(C=CC(=C1)[N+](=O)[O-])NS(=O)(=O)C2=C(C=CC(=C2)Cl)Cl [FH535] + CC(C)C[C@H](NC(=O)[C@H](Cc1ccccc1)NC(=O)c1cnccn1)B(O)O [Bortezomib] (partner 0.002 µM)
Procedure, shortened: as §1

FH535 + Lapatinib = compound: CC1=C(C=CC(=C1)[N+](=O)[O-])NS(=O)(=O)C2=C(C=CC(=C2)Cl)Cl [FH535] + CS(=O)(=O)CCNCc1ccc(-c2ccc3ncnc(Nc4ccc(OCc5cccc(F)c5)c(Cl)c4)c3c2)o1 [Lapatinib] (partner 2 µM)
Procedure, shortened: as §1

FH535 + Pictilisib = compound: CC1=C(C=CC(=C1)[N+](=O)[O-])NS(=O)(=O)C2=C(C=CC(=C2)Cl)Cl [FH535] + CS(=O)(=O)N1CCN(Cc2cc3nc(-c4cccc5[nH]ncc45)nc(N4CCOCC4)c3s2)CC1 [Pictilisib] (partner 1 µM)
Procedure, shortened: as §1

FH535 + Pemetrexed = compound: CC1=C(C=CC(=C1)[N+](=O)[O-])NS(=O)(=O)C2=C(C=CC(=C2)Cl)Cl [FH535] + Nc1nc2[nH]cc(CCc3ccc(C(=O)N[C@@H](CCC(=O)O)C(=O)O)cc3)c2c(=O)[nH]1 [Pemetrexed] (partner 0.2 µM)
Procedure, shortened: as §1

| Cell Line | relative viability (FH535 + Palbociclib; first compound 0.04 µM) | relative viability (FH535 + Palbociclib; first compound 0.1265 µM) | relative viability (FH535 + Palbociclib; first compound 0.4 µM) | relative viability (FH535 + Palbociclib; first compound 1.265 µM) | relative viability (FH535 + Bortezomib; first compound 0.04 µM) | relative viability (FH535 + Bortezomib; first compound 0.1265 µM) | relative viability (FH535 + Bortezomib; first compound 0.4 µM) | relative viability (FH535 + Bortezomib; first compound 1.265 µM) | relative viability (FH535 + Lapatinib; first compound 0.04 µM) | relative viability (FH535 + Lapatinib; first compound 0.1265 µM) | relative viability (FH535 + Lapatinib; first compound 0.4 µM) | relative viability (FH535 + Lapatinib; first compound 1.265 µM) | relative viability (FH535 + Pictilisib; first compound 0.04 µM) | relative viability (FH535 + Pictilisib; first compound 0.1265 µM) | relative viability (FH535 + Pictilisib; first compound 0.4 µM) | relative viability (FH535 + Pictilisib; first compound 1.265 µM) | relative viability (FH535 + Pemetrexed; first compound 0.04 µM) | relative viability (FH535 + Pemetrexed; first compound 0.1265 µM) | relative viability (FH535 + Pemetrexed; first compound 0.4 µM) | relative viability (FH535 + Pemetrexed; first compound 1.265 µM) |
| --- | --- | --- | --- | --- | --- | --- | --- | --- | --- | --- | --- | --- | --- | --- | --- | --- | --- | --- | --- | --- |
| LOU-NH91 | 0.458 | 0.536 | 0.548 | 0.497 | 0.504 | 0.497 | 0.527 | 0.37 | 0.726 | 0.667 | 0.6 | 0.408 | 0.471 | 0.554 | 0.48 | 0.339 | 0.377 | 0.428 | 0.429 | 0.457 |
| LU99A | 0.35 | 0.436 | 0.432 | 0.342 | 0.726 | 1.01 | 1.05 | 0.948 | 0.739 | 1.05 | 0.969 | 0.866 | 0.291 | 0.324 | 0.335 | 0.295 | 0.148 | 0.171 | 0.199 | 0.239 |
| LXF-289 | 0.597 | 0.618 | 0.559 | 0.497 | 0.96 | 0.996 | 0.928 | 0.723 | 0.88 | 0.878 | 0.886 | 0.801 | 0.69 | 0.793 | 0.758 | 0.681 | 0.775 | 0.948 | 0.95 | 0.751 |
| NCI-H23 | 0.453 | 0.552 | 0.477 | 0.471 | – | 1.25 | 1.04 | 1.11 | – | 1.17 | 0.936 | 0.913 | – | 0.41 | 0.483 | 0.508 | 0.517 | 0.782 | 0.625 | 0.436 |
| NCI-H322M | 0.489 | 0.481 | 0.524 | 0.511 | 1.21 | 1.14 | 1.07 | 1.08 | 0.504 | 0.554 | 0.555 | 0.595 | 0.471 | 0.539 | 0.436 | 0.497 | 0.559 | 0.67 | 0.633 | 0.587 |
| NCI-H460 | 0.175 | 0.253 | 0.244 | 0.117 | 0.984 | 1.24 | 1.16 | 0.668 | 0.992 | 1.08 | 1 | 0.575 | 0.344 | 0.338 | 0.335 | 0.329 | 0.0603 | 0.0608 | 0.0625 | 0.0646 |
| NCI-H520 | 0.205 | 0.248 | 0.182 | 0.246 | 0.304 | 0.239 | 0.522 | 0.601 | 0.848 | 0.768 | 0.818 | 0.761 | 0.274 | 0.201 | 0.303 | 0.279 | 0.737 | 0.818 | 0.585 | 0.659 |
| NCI-H647 | 0.401 | 0.445 | 0.27 | 0.4 | 0.964 | 0.584 | 0.818 | 0.95 | 0.971 | 1.08 | 0.914 | 0.864 | 0.435 | 0.458 | 0.434 | 0.362 | 0.2 | 0.219 | 0.187 | 0.152 |
